# Like-named read-outs stand apart in the source and are kept apart here.
# How the values were obtained:
# [1] = test system: ADP-induced platelet aggregation; details: cited from earlier work; for inhibition of platelet aggregation: patients with ischaemic heart disease, measured at 4 min after addition of 10 μM ADP
# [2] = test system: human platelets; assay: Focused light scattering size distribution of platelets and microparticles after activation; assay type: cell-based; details: normal resting human platelets versus activated; FIG. 8 / FIG. 9
# From the text: FIG. 8 is a chart showing the result of the activation of platelets using thrombin receptor activating peptide (TRAP), where platelets are enlarged when activated, and also give off microparticles (MPs).
# FIG. 9 is a chart showing the result of the activation of platelets using a calcium ionophore, which destroys platelets, and also causes the platelets to give off microparticles (MPs). Treated and untreated platelet size distributions are shown. What is observed is as the number of platelets decreases, the number of MPs increases.
# The ionophore basically destroys the platelet to produce many more MPs. Treated and untreated platelet size distributions are shown. What is observed is as the number of platelets decreases, the number of MPs increases.
# [3] = in vivo; cited from earlier work
# [4] = test system: P2Y12-dependent platelet function; details: added in vitro to blood from clopidogrel treated patients; cited from earlier work
compound,measurement,setting,value
"COC(=O)[C@H](c1ccccc1Cl)N1CCc2sccc2C1 [Plavix, clopidogrel bisulfate]",delayed onset of action,[1]; loading dose of 300-600 mg,two to five
same,inhibition of platelet aggregation,[1]; 4 to 7 days treatment,approximately 60%
"CC(=O)Oc1cc2c(s1)CCN(C(C(=O)C1CC1)c1ccccc1F)C2 (stereo not drawn) [Prasugrel, 2-acetoxy-5-[alpha-cyclopropylcarbonyl-2-fluorobenzyl]-4,5,6,7-tetrahydrothieno[3,2-c]pyridine]",inhibition of ADP-induced platelet aggregation,"[1]; cross-over study, 60 mg loading dose, also in subjects who responded poorly to a standard loading dose of Clopidogrel","rapid and highgrade, irreversible inhibition"
CNc1ccc2oc(C[C@H]3O[C@@]4(CC[C@H]3C)O[C@H]([C@H](C)C(=O)c3ccc[nH]3)[C@H](C)C[C@H]4C)nc2c1C(=O)O [calcium ionophore],microparticles (MPs) formed on activation of platelets,[2],many more MPs
CSCCNc1nc(SCCC(F)(F)F)nc2c1ncn2[C@@H]1O[C@H](COP(=O)(O)OP(=O)(O)C(Cl)(Cl)P(=O)(O)O)[C@@H](O)[C@H]1O [cangrelor],half-life,[3],2.6 min
same,inhibition of platelet aggregation,[1]; infusion at 2 and 4 μg/mL/min,near complete inhibition
same,inhibition of P2Y12-dependent platelet function,[4],near complete inhibition
